Assays:
Assay type in all cases: cell-based
[1] = tested on: human adipose stem cells (hASCs); experiment: hASC attachment to BCP20/80 scaffolds after calcitriol pre-treatment
Procedure: In one embodiment, a method of static culture of hASCs by pre-treatment with vitamin D3 (calcitriol) and attachment of hASCs to the scaffold used in one-step surgical procedure comprises the following steps. At one step, isolating hASCs as explained in FIG. 1. In an embodiment, the hASCs from three donors at passage 3 are used for further processing. As an optional step, the obtained hASCs are either or not incubated for a period of about 30 mins with low concentrated calcitriol of about 10 nM at room temperature. At next step, the calcitriol treated hASCs are washed twice with Phosphate Buffered Saline (PBS) to remove calcitriol. Further, the washed hASCs are centrifuged and resuspended in Dulbecco's Minimum Essential Medium (DMEM) without any supplements. At another step, the resuspended cells are seeded on the scaffold and allowed to attach to the scaffolds for a period of about 30 minutes. At next step, the scaffolds with attached cells are transferred to 12-well plates with Costar® Transwell® containers (Corning Life Sciences, Lowell, Mass., USA) containing expansion medium (DMEM) supplemented with 10% Fetal Clone I (FCI), antibiotics (1% penicillin/streptomycin/fungizone (PSF)), 50 μM ascorbic acid (Merck, Darmstadt, Germany), and 10 mM β-glycerol phosphate (Merck, Darmstadt, Germany) (PLGA/β-TCP). […]

[2] = tested on: human adipose stem cells (hASCs); experiment: Osteogenic and angiogenic gene expression of hASCs in 3D PLGA/β-TCP scaffold, dynamic and static culture
Procedure: (§1) In one embodiment, dynamic culture of pre-treated hASCs with calcitriol, using the modified perfusion bioreactor comprises the following steps. In one embodiment, the scaffolds are 3D PLGA/β-TCP. The modified perfusion bioreactor […] comprises five scaffolds, loaded with a total of 70 ml of culture medium as shown in FIG. 2. At another step, 30 ml of the culture medium is replaced twice a week for a total period of two weeks. At another step, the culture medium in the modified perfusion bioreactor 200 is distributed to the five scaffolds with the flow rate of about 5 ml/min using the peristaltic pump 202.
(§2) In one embodiment, the method of static culture of pre-treated hASCs is continued in a flask bioreactor with the same volume of culture medium utilized in the dynamic culture. Further, the methods of culturing the hASCs are divided into different groups. In one embodiment, the methods of culturing of hASCs are divided into four groups such as, static culture of non-treated hASCs, static culture of pre-treated hASCs with calcitriol, dynamic culture of non-treated hASCs and dynamic culture of pre-treated hASCs with calcitriol.
Referring to FIGS. 11A to 11I, the effects of perfusion culture of hASCs on osteogenic and angiogenic differentiation of hASCs are disclosed, where the hASCs are seeded in 3D PLGA/β-TCP scaffold. In one embodiment, the hASCs are pre-treated with or without 10 nM of calcitriol for 30 minutes and cultured in the modified perfusion bioreactor (dynamic culture) and flask bioreactor (static culture).

[3] = tested on: human adipose stem cells (hASCs); experiment: Metabolic activity / cell proliferation of hASCs in 3D PLGA/β-TCP scaffold, dynamic (perfusion bioreactor) and static (flask) culture
Procedure: as §1, §2
Referring to FIG. 9, the effects of dynamic pre-treated/non-treated hASCs versus static pre-treated/non-treated hASCs on metabolic activity or cell proliferation of hASCs is disclosed, where the pre-treated hASCs are seeded in 3D PLGA/β-TCP scaffold. In one embodiment, the hASCs are pre-treated with or without 10 nM calcitriol for 30 minutes and cultured in the modified perfusion bioreactor 200 (dynamic culture) and flask bioreactor (static culture). […] Also, the culturing groups are compared and there is no significant difference between the groups. However, the 14 days of dynamic culture of both non-treated hASCs and pre-treated hASCs increases cell proliferation by 1.1-fold relative to 7 days of culture.
In addition, alamarBlue assay, ALP assay, ALP staining, analysis of osteogenic and angiogenic gene expression and related protein content to evaluate the synergistic effects of flow-induced shear stress using a modified perfusion bioreactor and calcitriol pre-treatment are used for the examinations.

[4] = 14 days, perfusion culture of pre-treated vs perfusion culture of non-treated hASCs
[5] = 14 days, perfusion culture of pre-treated vs static culture of pre-treated hASCs
[6] = day 7, dynamic culture of pre-treated vs perfusion culture of non-treated hASCs
[7] = day 7, dynamic culture of pre-treated vs static culture of treated hASC

For C=C1/C(=C\C=C2/CCC[C@]3(C)[C@@H]([C@H](C)CCCC(C)(C)O)CC[C@@H]23)C[C@@H](O)C[C@@H]1O [calcitriol, 1,25-dihydroxyvitamin D3], the “cell attachment to BCP scaffolds” value ([1]; 30 min pre-treatment with 10 nM calcitriol (non-treated 54%)) was 83%, the “cell attachment to BCP scaffolds, increase” value ([1]; 30 min pre-treatment with 10 nM calcitriol, vs non-treated cells) was 1.5 fold and the “CYP27B1 gene expression, increase” value [2, 4] was 5.3 fold. For the same compound, the “Endotelin-1 gene expression, increase” value [2, 4] was 4 fold, the “Ki-67 gene expression, increase” value [2, 4] was 1.8 fold and the “OCN gene expression, increase” value [2, 4] was 2.1 fold. The “RUNX2 gene expression, increase” value [2, 4] was 6.4 fold, the “SPARC gene expression, increase” value [2, 4] was 2.8 fold and the “VEGF165 gene expression, increase” value [2, 4] was 3.1 fold. For the same compound, the “VEGF189 gene expression, increase” value [2, 4] was 2.5 fold, the “CYP27B1 gene expression, increase” value [2, 5] was 15.4 fold and the “Endotelin-1 gene expression, increase” value [2, 5] was 35 fold. For the same compound, the “Ki-67 gene expression, increase” value [2, 5] was 5.1 fold, the “OCN gene expression, increase” value [2, 5] was 4.1 fold and the “OPN gene expression, increase” value [2, 5] was 60 fold. For the same compound, the “RUNX2 gene expression, increase” value [2, 5] was 82.8 fold, the “SPARC gene expression, increase” value [2, 5] was 33.2 fold and the “VEGF165 gene expression, increase” value [2, 5] was 1.4 fold. For the same compound, the “VEGF189 gene expression, increase” value [2, 5] was 5.7 fold, the “OPN gene expression (level)” value ([2]; day 7, dynamic culture of pre-treated hASC) was 0.1084 and the “Endotelin-1 gene expression, increase” value [2, 6] was 120.9 fold. The “Ki-67 gene expression, increase” value [2, 6] was 45.9 fold, the “OCN gene expression, increase” value [2, 6] was 1.8 fold and the “RUNX2 gene expression, increase” value [2, 6] was 186.5 fold. For the same compound, the “SPARC gene expression, increase” value [2, 6] was 3 fold, the “VEGF165 gene expression, increase” value [2, 6] was 3 fold and the “VEGF189 gene expression, increase” value [2, 6] was 3.4 fold. For the same compound, the “Endotelin-1 gene expression, increase” value [2, 7] was 5.4 fold, the “OCN gene expression, increase” value [2, 7] was 7.1 fold and the “OPN gene expression, increase” value [2, 7] was 47.3 fold. The “SPARC gene expression, increase” value [2, 7] was 7.5 fold, the “VEGF165 gene expression, increase” value [2, 7] was 9.8 fold and the “VEGF189 gene expression, increase” value [2, 7] was 8.8 fold. For the same compound, the “OPN gene expression (level)” value ([2]; day 7, static culture of treated hASC) was 0.002291, the “cell proliferation, increase” value ([3]; dynamic culture of pre-treated hASCs, 14 days relative to 7 days of culture) was 1.1 fold and the “cell proliferation, increase” value ([3]; dynamic culture of pre-treated hASCs, 14 days, relative to the first day) was 10.8 fold. The “cell proliferation, increase” value ([3]; dynamic culture of pre-treated hASCs, after 7 days, relative to the first day) was 9.9 fold, the cell proliferation ([3]; perfusion culture of pre-treated vs perfusion culture of non-treated hASCs, after 7 and 14 days) was “slightly decelerates” and the “cell proliferation, increase” value ([3]; static culture of pre-treated hASCs (10 nM, 30 min), after 7 days, relative to the first day) was 10.6 fold. The “cell proliferation, increase” value ([3]; static culture of pre-treated hASCs, 14 days, relative to the first day) was 1.6 fold.
